Reference: the supplement of paper PMC10307832

Experiments:
Test in all cases: relative viability (nuclei count vs DMSO), 5 days (fraction); higher = more cells survive
YM155 + Trametinib = compound: COCC[n+]1c2c(n(Cc3cnccn3)c1C)C(=O)c1ccccc1C2=O [YM155] + CC(=O)Nc1cccc(-n2c(=O)n(C3CC3)c(=O)c3c(Nc4ccc(I)cc4F)n(C)c(=O)c(C)c32)c1 [Trametinib] (partner 0.02 µM)
Summary of the method: (§1)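 Lung cancer cell lines were seeded in 1536-well plates and dosed by pin tool the next day, with either a single drug or a fixed anchor-drug dose combined with five library-drug doses (not always all listed) spaced in √10 steps. Five days later, one step fixed the cells and stained their nuclei (final 0.05% Triton X-100, 1% formaldehyde, 1 ug/ml Hoechst), and nuclei were counted on 4× images. Relative viability is the nuclei count in treated wells divided by the count in vehicle wells, and each value is the median of duplicate plates.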

YM155 + Pemetrexed = compound: COCC[n+]1c2c(n(Cc3cnccn3)c1C)C(=O)c1ccccc1C2=O [YM155] + Nc1nc2[nH]cc(CCc3ccc(C(=O)N[C@@H](CCC(=O)O)C(=O)O)cc3)c2c(=O)[nH]1 [Pemetrexed] (partner 0.2 µM)
Summary of the method: as §1

YM155 + Foretinib = compound: COCC[n+]1c2c(n(Cc3cnccn3)c1C)C(=O)c1ccccc1C2=O [YM155] + COc1cc2c(Oc3ccc(NC(=O)C4(C(=O)Nc5ccc(F)cc5)CC4)cc3F)ccnc2cc1OCCCN1CCOCC1 [Foretinib] (partner 0.25 µM)
Summary of the method: as §1

Quizartinib + Pemetrexed = compound: CC(C)(C)c1cc(NC(=O)Nc2ccc(-c3cn4c(n3)sc3cc(OCCN5CCOCC5)ccc34)cc2)no1 [Quizartinib] + Nc1nc2[nH]cc(CCc3ccc(C(=O)N[C@@H](CCC(=O)O)C(=O)O)cc3)c2c(=O)[nH]1 [Pemetrexed] (partner 0.2 µM)
Summary of the method: as §1

Row | Cell Line | relative viability (YM155 + Trametinib; first compound 0.002 µM) | relative viability (YM155 + Trametinib; first compound 0.006325 µM) | relative viability (YM155 + Trametinib; first compound 0.02 µM) | relative viability (YM155 + Trametinib; first compound 0.06325 µM) | relative viability (YM155 + Pemetrexed; first compound 0.002 µM) | relative viability (YM155 + Pemetrexed; first compound 0.006325 µM) | relative viability (YM155 + Pemetrexed; first compound 0.02 µM) | relative viability (YM155 + Pemetrexed; first compound 0.06325 µM) | relative viability (YM155 + Foretinib; first compound 0.002 µM) | relative viability (YM155 + Foretinib; first compound 0.006325 µM) | relative viability (YM155 + Foretinib; first compound 0.02 µM) | relative viability (YM155 + Foretinib; first compound 0.06325 µM) | relative viability (Quizartinib + Pemetrexed; first compound 0.001 µM) | relative viability (Quizartinib + Pemetrexed; first compound 0.003162 µM) | relative viability (Quizartinib + Pemetrexed; first compound 0.01 µM) | relative viability (Quizartinib + Pemetrexed; first compound 0.03162 µM) | relative viability (Quizartinib + Pemetrexed; first compound 0.1 µM)
1 | 201T | 0.701 | 0.72 | 0.702 | 0.761 | 0.31 | 0.406 | 0.298 | 0.28 | 1.16 | 1.11 | 1.05 | 1.16 | 0.272 | 0.311 | 0.306 | 0.302 | 0.365
2 | HCC-827 | 0.528 | 0.531 | 0.605 | 0.628 | 0.301 | 0.328 | 0.253 | 0.303 | 1.03 | 1.09 | 1.07 | 1.06 | 0.237 | 0.249 |  | 0.24 | 0.276
3 | LCLC-97TM1 |  | 0.178 | 0.23 | 0.21 |  | 0.193 | 0.181 | 0.18 | 0.924 | 0.97 | 1.07 | 0.97 | 0.178 | 0.177 | 0.195 | 0.184 | 0.191
4 | NCI-H441 | 0.383 | 0.393 | 0.461 | 0.268 | 0.249 | 0.267 | 0.293 | 0.198 | 0.859 | 0.636 | 0.992 | 0.43 | 0.261 | 0.267 | 0.247 | 0.255 | 0.287
5 | NCI-H838 | 0.461 | 0.505 | 0.508 | 0.372 | 0.276 | 0.232 | 0.225 | 0.216 | 1.04 | 1.02 | 1.09 | 0.479 | 0.244 | 0.231 | 0.268 | 0.257 | 0.236
6 | NCI-H1437 | 0.42 | 0.564 | 0.534 | 0.469 | 0.297 | 0.305 | 0.33 | 0.234 | 1.21 | 1.24 | 1.26 | 0.984 | 0.314 | 0.302 | 0.305 | 0.335 | 0.32
7 | LXF-289 | 0.665 | 0.746 | 0.697 | 0.711 | 0.855 | 0.914 | 0.827 | 0.783 | 1 | 1.01 | 1.02 | 0.97 | 0.789 | 0.827 | 1 | 0.83 | 0.867
8 | LU99A | 0.539 | 0.496 | 0.641 | 0.56 | 0.164 | 0.2 | 0.153 | 0.177 | 0.806 | 0.866 | 0.905 | 0.884 | 0.206 | 0.189 | 0.179 | 0.189 | 0.183
9 | HOP-62 | 0.389 | 0.389 | 0.419 | 0.424 | 0.372 | 0.365 | 0.325 | 0.289 | 0.979 | 1.04 | 1.17 | 1.02 | 0.3 | 0.248 | 0.315 | 0.325 | 0.323
10 | NCI-H1915 | 0.303 | 0.295 | 0.3 | 0.349 | 0.481 | 0.494 | 0.439 | 0.458 | 1.05 | 1.08 | 1.08 | 0.963 | 0.49 | 0.47 | 0.552 | 0.477 | 0.488
11 | NCI-H2342 | 0.738 | 0.71 | 0.829 | 0.757 | 0.75 | 0.742 | 0.764 | 0.788 | 1 | 1.14 | 1.14 | 1.03 | 0.745 | 0.83 | 0.774 | 0.746 | 0.778
12 | SW 1573 | 0.59 | 0.453 | 0.16 | 0.0853 | 0.867 | 0.835 | 0.362 | 0.0865 | 0.986 | 0.974 | 0.92 | 0.877 | 0.872 | 0.75 | 0.826 |  | 0.848
13 | HARA |  | 0.996 | 0.629 | 0.676 |  | 0.235 | 0.228 | 0.268 | 0.892 | 1.03 | 0.94 | 1.04 | 0.257 | 0.266 | 0.266 | 0.222 | 0.304
14 | HCC-366 | 0.353 | 0.421 | 0.371 | 0.353 | 0.161 | 0.187 | 0.158 | 0.165 | 0.924 | 0.899 | 0.951 | 1.11 | 0.148 | 0.148 | 0.129 | 0.165 | 0.178
15 | SK-MES-1 | 0.588 | 0.701 | 0.459 | 0.218 | 0.937 | 1.03 | 0.955 | 0.291 | 0.9 | 0.889 | 0.921 | 0.921 | 0.939 | 0.904 | 0.981 | 0.563 | 0.817
16 | NCI-H358 | 0.142 | 0.153 | 0.167 | 0.14 | 0.181 | 0.172 | 0.167 | 0.127 | 0.653 | 0.699 | 0.736 | 0.37 | 0.164 | 0.148 | 0.223 |  | 0.155
17 | HCC-15 | 0.331 | 0.389 | 0.283 | 0.423 | 0.239 | 0.229 | 0.23 | 0.242 | 0.992 | 1.05 | 0.888 | 0.515 | 0.223 | 0.21 | 0.248 | 0.216 | 0.224
18 | NCI-H1650 | 0.478 | 0.581 | 0.458 | 0.355 | 0.35 | 0.348 | 0.321 | 0.249 | 1.07 | 1.11 | 0.932 | 0.57 | 0.342 | 0.398 | 0.441 |  | 0.381
19 | NCI-H1666 | 0.865 | 0.896 | 0.874 | 0.903 | 0.837 | 0.881 | 0.854 | 0.868 | 0.917 | 0.996 | 0.988 | 0.942 | 0.772 | 0.822 | 0.85 | 0.827 | 0.914
